The results in this text go back to PubChem BioAssay (NCI).

Test systems include IGROV1 ovarian; MCF7 breast; SW-620 colon; SK-OV-3 ovarian; HCT-15 colon; DU-145 prostate; HOP-92 NSCLC; SR leukemia.
Holding throughout (test): DTP human tumour cell line panel, 48 h

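Exposure lasted 48 hours, with cells grown in 96-well plates and compounds tested at five concentrations. GI50 = concentration required for 50% inhibition of growth. TGI is the concentration that stops growth completely.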 Bounds are passed on as bounds.

As for `CNC(=O)c1ccccc1Nc1nc(Nc2ccc(N3CCOCC3)cc2OC)ncc1Cl`, the 50% growth inhibitory concentration (GI50) is 0.277 µM in the assay on IGROV1 ovarian; 0.133 µM in the assay with MCF7 breast; 0.314 µM in the assay with SW-620 colon; 0.543 µM with SK-OV-3 ovarian; 0.542 µM in the assay on HCT-15 colon; 0.768 µM in the assay on DU-145 prostate. The GI50 in the assay on HOP-92 NSCLC is 0.0571 µM; with SR leukemia, 0.0251 µM. For the same compound, the TGI with IGROV1 ovarian was 2.15 µM; with MCF7 breast, more than 50.7 µM; in the assay with SW-620 colon, more than 100 µM; with SK-OV-3 ovarian, 3.7 µM; in the assay on HCT-15 colon, more than 40.8 µM; with DU-145 prostate, more than 39.2 µM. Further, the results for the TGI in the assay with HOP-92 NSCLC and in the assay on SR leukemia were 1.03 µM and 3.25 µM, respectively.
With `COc1ccc(-c2cc(-c3ccc(Nc4nc(Nc5ccccc5)nc(Nc5ccc(Cl)cc5)n4)cc3)nc(N)c2C#N)cc1`, the GI50 is 0.546 µM in the assay on IGROV1 ovarian; 0.941 µM in the assay with MCF7 breast; 1.04 µM in the assay with SW-620 colon; more than 28.3 µM with SK-OV-3 ovarian; 1.2 µM in the assay on HCT-15 colon; 2.41 µM in the assay on DU-145 prostate. Further, the GI50 in the assay on HOP-92 NSCLC was 0.782 µM; in the assay on SR leukemia, 0.582 µM. Moreover, the concentration for total growth inhibition (TGI) was 1.41 µM with IGROV1 ovarian; more than 50 µM with MCF7 breast; 2.3 µM in the assay with SW-620 colon; more than 50 µM in the assay on SK-OV-3 ovarian; 3.68 µM in the assay on HCT-15 colon; more than 50 µM in the assay with DU-145 prostate. Also, the TGI was determined as 2.62 µM with HOP-92 NSCLC and 2.94 µM with SR leukemia.
As for `CC1=C(C#N)C23C(=O)c4ccccc4C(O)=C2C(=O)C=CC3(O)N1Cc1ccccc1` (centres undefined), the GI50 in the assay with IGROV1 ovarian was 23.9 µM; in the assay on MCF7 breast it was 41.6 µM; in the assay with SW-620 colon it was 37.1 µM; with SK-OV-3 ovarian it was more than 100 µM; in the assay with HCT-15 colon, 15 µM; in the assay on DU-145 prostate, 35.1 µM. Besides, the GI50 was 39.4 µM in the assay on HOP-92 NSCLC and 33.7 µM with SR leukemia. In addition, the total growth inhibition concentration (TGI) in the assay on IGROV1 ovarian is 72.4 µM; with MCF7 breast, more than 100 µM; with SW-620 colon, more than 100 µM; in the assay on SK-OV-3 ovarian it was more than 100 µM; in the assay on HCT-15 colon it was more than 100 µM; in the assay on DU-145 prostate it was more than 100 µM. In addition, the total growth inhibition concentration (TGI) with HOP-92 NSCLC and in the assay on SR leukemia was more than 100 µM each time.
On to `COc1cc2nc(-c3ccc(C(F)(F)F)cc3)cc(OCCCN3CCC(O)CC3)c2cc1OC`, for which the GI50 in the assay with IGROV1 ovarian was 0.9 µM; in the assay on MCF7 breast it was 2.57 µM; with SW-620 colon, 3.53 µM; in the assay on SK-OV-3 ovarian it was 10.6 µM; with HCT-15 colon, 0.667 µM; in the assay with DU-145 prostate it was 4.96 µM. In addition, the GI50 is 1.68 µM with HOP-92 NSCLC and 0.274 µM with SR leukemia. Besides, the TGI with IGROV1 ovarian stood at 18.2 µM; in the assay on MCF7 breast, 18.2 µM; in the assay on SW-620 colon, 14.8 µM; in the assay on SK-OV-3 ovarian it was 25.3 µM; in the assay on HCT-15 colon it was 13.8 µM; in the assay on DU-145 prostate it was 20.4 µM. Also, the TGI in the assay with HOP-92 NSCLC was 9.64 µM; in the assay with SR leukemia, 16.6 µM.
`Cc1ccc(-c2nnc(-c3ccc4ccccc4c3)o2)cc1`: the TGI in the assay with IGROV1 ovarian, in the assay on MCF7 breast, with SW-620 colon, in the assay with SK-OV-3 ovarian, in the assay with HCT-15 colon and in the assay on DU-145 prostate was more than 100 µM throughout. Also, the concentration for total growth inhibition (TGI) with HOP-92 NSCLC was more than 100 µM; in the assay with SR leukemia, more than 68.4 µM.
`CCCCCCCC(=O)SCC/C=C/[C@@H]1CC(=O)NCc2cccc(n2)C2=N[C@@](C)(CS2)C(=O)N[C@@H](C(C)C)C(=O)N1`: the GI50 was 0.224 µM with IGROV1 ovarian; 0.623 µM in the assay on MCF7 breast; 6.33 µM in the assay with SW-620 colon; 1.23 µM with SK-OV-3 ovarian; 14.3 µM with HCT-15 colon; 0.3 µM in the assay with DU-145 prostate. Further, the GI50 in the assay with HOP-92 NSCLC was 0.481 µM; in the assay with SR leukemia, 0.498 µM. Further, the TGI is 15.2 µM with IGROV1 ovarian; more than 33.3 µM with MCF7 breast; more than 33.3 µM with SW-620 colon; 11 µM in the assay with SK-OV-3 ovarian; more than 33.3 µM in the assay on HCT-15 colon; more than 33.3 µM in the assay with DU-145 prostate. The concentration for total growth inhibition (TGI) in the assay with HOP-92 NSCLC was 9.31 µM; in the assay on SR leukemia, more than 33.3 µM.
For `O=C(O)c1cc(C(=O)O)cc(N2C(=O)c3ccccc3C2=O)c1`, the TGI in the assay on IGROV1 ovarian, in the assay on MCF7 breast, with SW-620 colon, in the assay on SK-OV-3 ovarian, with HCT-15 colon and in the assay on DU-145 prostate was more than 100 µM in each case. In addition, the TGI in the assay with HOP-92 NSCLC and in the assay on SR leukemia was more than 100 µM in each case.
In the case of `O=C1c2cccnc2-c2nc(-c3ccccc3[N+](=O)[O-])cc3c2c1nc1ccccc13`, the GI50 in the assay on IGROV1 ovarian was 12.3 µM; in the assay with MCF7 breast, 3.25 µM; in the assay on SW-620 colon, 3.27 µM; in the assay with SK-OV-3 ovarian, 67 µM; in the assay on HCT-15 colon, 12 µM; in the assay on DU-145 prostate it was 14.9 µM. The GI50 in the assay with HOP-92 NSCLC is 8.7 µM; in the assay with SR leukemia, 96.1 µM. For the same compound, the total growth inhibition concentration (TGI) in the assay on IGROV1 ovarian was 83.3 µM; in the assay on MCF7 breast, 15.4 µM; in the assay on SW-620 colon it was 18.9 µM; with SK-OV-3 ovarian, more than 100 µM; in the assay on HCT-15 colon, 32.9 µM; in the assay with DU-145 prostate it was 33.3 µM. The TGI with HOP-92 NSCLC and in the assay on SR leukemia was more than 100 µM throughout.
`Cc1cc2nc(C(Cl)Cl)nc(-c3ccc(Cl)cc3)n2n1`: the GI50 with IGROV1 ovarian was 1.38 µM; in the assay with MCF7 breast, 0.465 µM; in the assay on SW-620 colon it was 0.433 µM; in the assay with SK-OV-3 ovarian, 2.11 µM; in the assay with HCT-15 colon it was 0.745 µM; with DU-145 prostate, 0.268 µM. Moreover, the GI50 was 1.53 µM in the assay on HOP-92 NSCLC and 0.372 µM with SR leukemia. The total growth inhibition concentration (TGI) with IGROV1 ovarian came to 5.28 µM; in the assay with MCF7 breast, 5.1 µM; in the assay on SW-620 colon, 2.93 µM; with SK-OV-3 ovarian it was 7 µM; in the assay on HCT-15 colon, 3.47 µM; in the assay with DU-145 prostate, 0.827 µM. The TGI in the assay on HOP-92 NSCLC was 4.66 µM; in the assay with SR leukemia, more than 21.1 µM.
As to `Cc1cc(=O)n2[nH]c(-c3ccc(C(C)(C)C)cc3)cc2n1`, the GI50 was 7.36 µM in the assay with IGROV1 ovarian; 7.43 µM in the assay with MCF7 breast; 4.4 µM in the assay on SW-620 colon; 6.8 µM in the assay with SK-OV-3 ovarian; 5.79 µM in the assay on HCT-15 colon; 11.4 µM in the assay with DU-145 prostate. In addition, the values for the GI50 in the assay on HOP-92 NSCLC and with SR leukemia were 6.6 µM and 8.03 µM, respectively. Moreover, the total growth inhibition concentration (TGI) in the assay with IGROV1 ovarian is more than 100 µM; in the assay on MCF7 breast, more than 100 µM; in the assay with SW-620 colon, more than 100 µM; in the assay with SK-OV-3 ovarian, 86 µM; with HCT-15 colon, more than 100 µM; in the assay on DU-145 prostate, 75.9 µM. Further, the TGI in the assay with HOP-92 NSCLC is 51.6 µM; in the assay with SR leukemia, more than 100 µM.

For orientation: GI50 means the concentration giving 50% growth inhibition. The TGI is the concentration at which net growth stops. Higher therefore signals lower sensitivity of the cells.
